{
  "source": "patent US9062074B2",
  "about": "“(9E)-15-(2-pyrrolidin-1-yl-ethoxy)-7,12,25-trioxa-19,21,24-triaza-tetracyclo[18.3.1.1(2.5).1(14,18)]hexacosa-1(24),2,4,9,14,16,18(26),20,22-nonaene citrate salt” (CTI BioPharma Corp., priority 2009, dated 2015)",
  "assay_type_in_all_cases": "physicochemical",
  "key": {"[1]": {"test": "Phase stability by XRPD after storage at 40° C. and 75% relative humidity for one week", "settings": "solid form by low resolution XRPD after one week", "procedure": "Condition 2 (Low Resolution)\nX-Ray Powder Diffraction patterns were also collected on a Bruker D8 diffractometer using Cu K[…] radiation (40 kV, 40 mA), θ-2θ goniometer, and divergence of V4 and receiving slits, a Ge monochromator and a Lynxeye detector. The instrument is performance checked using a certified Corundum standard (NIST 1976). The software used for data collection was Diffrac Plus XRD Commander v2.5.0 and the data were analysed and presented using Diffrac Plus EVA v 11.0.0.2 or v 13.0.0.2. Samples were run under ambient conditions as flat plate specimens using powder as received. Approximately 15 mg of the sample was gently packed into a cavity cut into polished, zerobackground (510) silicon wafer. The sample was rotated in its own plane during analysis. The details of the data collection are:\nThe samples which had been prepared for the collection of low resolution XRPD traces were placed in a chamber maintained at 40° C. and 75% relative humidity. After one week the samples were reanalysed by low resolution XRPD (Condition 2), to check for phase changes. It can be seen that no phase change has occurred, and that citrate salts of the invention are stable for at least one week under these conditions."}, "[2]": {"test": "Thermogravimetric Analysis (TGA)", "procedure": "Thermogravimetric Analysis (TGA) data were collected on a Mettler TGA/SDTA 851e equipped with a 34 position autosampler. The instrument was temperature calibrated using certified indium. Typically 5-30 mg of each sample was loaded onto a pre-weighed aluminium crucible and was heated at 10° C.min^−1 from ambient temperature to 350° C. A nitrogen purge at 50 ml.min^−1 was maintained over the sample. The instrument control and data analysis software was STARe v9.10."}, "[3]": {"test": "Differential Scanning Calorimetry (DSC)", "settings": "from DSC endotherm shape and TGA weight loss", "procedure": "Differential Scanning Calorimetry (DSC) data were collected on a Mettler DSC 823e equipped with a 34 position auto-sampler. The instrument was calibrated for energy and temperature using certified indium. Typically 0.5-3 mg of each sample, in a pin-holed aluminium pan, was heated at 10° C.min^−1 from 25° C. to 350° C. A nitrogen purge at 50 ml.min^−1 was maintained over the sample. The instrument control and data analysis software was STARe v9.10."}, "[4]": {"test": "Solubility assessment (solvent added in 10 volume aliquots)", "settings": "organic solvent or mixture, thermodynamic from solid, read-out: Solubility assessment observation", "procedure": "For each solvent investigated, approximately 8 mg of compound 1 was weighed into an 8 ml screw top glass vial. The solvent was added in 10 volume aliquots and the mixture sonicated and warmed (with a hot-air gun) to encourage dissolution. If dissolution was not achieved after the addition of 100 volumes of solvent, a further 100 volumes was added."}},
  "note": "Where two headings read alike, the source gives them in different places.",
  "data": [
    {"smiles": "C1=C2COC/C=C/COCc3cc(ccc3OCCN3CCCC3)Nc3nccc(n3)C(=C1)O2", "note": "[Batch 4]", "values": [
      {"measurement": "Phase Stability 1 wk @ 40° C./75% RH", "setting": "[1]", "result": "Crystalline Form 1"},
      {"measurement": "Thermogravimetric Analysis weight change", "setting": "[2]; 160 to 250° C.", "result": "−20% w/w 160 to 250 °C"},
      {"measurement": "Thermogravimetric Analysis weight change", "setting": "[2]; ambient to 160° C.", "result": "−0.4", "unit": "% w/w ambient to"},
      {"measurement": "weight loss in TGA corresponding to DSC thermal event", "setting": "[2]; at thermal event at 176° C.", "result": "~20", "unit": "%"},
      {"measurement": "temperature above which gross degradation is occurring", "setting": "[3]", "result": "> 176", "unit": "°C"},
      {"measurement": "solubility", "setting": "[4]; TBME, TBME, 10 vols", "result": "< 100", "unit": "mg/mL"},
      {"measurement": "solubility", "setting": "[4]; TBME, TBME, 20 vols", "result": "< 50", "unit": "mg/mL"},
      {"measurement": "solubility", "setting": "[4]; TBME, TBME, 30 vols", "result": "< 33.3", "unit": "mg/mL"},
      {"measurement": "solubility", "setting": "[4]; TBME, TBME, 40 vols", "result": "< 25", "unit": "mg/mL"},
      {"measurement": "solubility", "setting": "[4]; TBME, TBME, 50 vols", "result": "< 20", "unit": "mg/mL"},
      {"measurement": "solubility", "setting": "[4]; TBME, TBME, 60 vols", "result": "< 16.7", "unit": "mg/mL"},
      {"measurement": "solubility", "setting": "[4]; TBME, TBME, 70 vols", "result": "< 14.3", "unit": "mg/mL"},
      {"measurement": "solubility", "setting": "[4]; TBME, TBME, 80 vols", "result": "< 12.5", "unit": "mg/mL"},
      {"measurement": "solubility", "setting": "[4]; TBME, TBME, 90 vols", "result": "< 11.1", "unit": "mg/mL"},
      {"measurement": "solubility", "setting": "[4]; TBME, TBME, 100 vols", "result": "< 10", "unit": "mg/mL"},
      {"measurement": "solubility", "setting": "[4]; TBME, TBME, 200 vols", "result": "< 5", "unit": "mg/mL"},
      {"measurement": "solubility", "setting": "[4]; ethyl acetate, Ethyl acetate, 10 vols", "result": "< 100", "unit": "mg/mL"},
      {"measurement": "solubility", "setting": "[4]; ethyl acetate, Ethyl acetate, 20 vols", "result": "< 50", "unit": "mg/mL"},
      {"measurement": "solubility", "setting": "[4]; ethyl acetate, Ethyl acetate, 30 vols", "result": "< 33.3", "unit": "mg/mL"},
      {"measurement": "solubility", "setting": "[4]; ethyl acetate, Ethyl acetate, 40 vols", "result": "< 25", "unit": "mg/mL"},
      {"measurement": "solubility", "setting": "[4]; ethyl acetate, Ethyl acetate, 50 vols", "result": "< 20", "unit": "mg/mL"},
      {"measurement": "solubility", "setting": "[4]; ethyl acetate, Ethyl acetate, 60 vols", "result": "< 16.7", "unit": "mg/mL"},
      {"measurement": "solubility", "setting": "[4]; ethyl acetate, Ethyl acetate, 70 vols", "result": "< 14.3", "unit": "mg/mL"},
      {"measurement": "solubility", "setting": "[4]; ethyl acetate, Ethyl acetate, 80 vols", "result": "< 12.5", "unit": "mg/mL"},
      {"measurement": "solubility", "setting": "[4]; ethyl acetate, Ethyl acetate, 90 vols", "result": "< 11.1", "unit": "mg/mL"},
      {"measurement": "solubility", "setting": "[4]; ethyl acetate, Ethyl acetate, 100 vols", "result": "< 10", "unit": "mg/mL"},
      {"measurement": "solubility", "setting": "[4]; ethyl acetate, Ethyl acetate, 200 vols", "result": "< 5", "unit": "mg/mL"},
      {"measurement": "solubility", "setting": "[4]; i-propyl acetate, i-propyl acetate, 10 vols", "result": "< 100", "unit": "mg/mL"},
      {"measurement": "solubility", "setting": "[4]; i-propyl acetate, i-propyl acetate, 20 vols", "result": "< 50", "unit": "mg/mL"},
      {"measurement": "solubility", "setting": "[4]; i-propyl acetate, i-propyl acetate, 40 vols", "result": "< 25", "unit": "mg/mL"},
      {"measurement": "solubility", "setting": "[4]; i-propyl acetate, i-propyl acetate, 60 vols", "result": "< 16.7", "unit": "mg/mL"},
      {"measurement": "solubility", "setting": "[4]; i-propyl acetate, i-propyl acetate, 80 vols", "result": "< 12.5", "unit": "mg/mL"},
      {"measurement": "solubility", "setting": "[4]; i-propyl acetate, i-propyl acetate, 100 vols", "result": "< 10", "unit": "mg/mL"},
      {"measurement": "solubility", "setting": "[4]; i-propyl acetate, i-propyl acetate, 200 vols", "result": "< 5", "unit": "mg/mL"},
      {"measurement": "solubility", "setting": "[4]; toluene, Toluene, 10 vols", "result": "< 100", "unit": "mg/mL"},
      {"measurement": "solubility", "setting": "[4]; toluene, Toluene, 20 vols", "result": "< 50", "unit": "mg/mL"},
      {"measurement": "solubility", "setting": "[4]; toluene, Toluene, 30 vols", "result": "< 33.3", "unit": "mg/mL"},
      {"measurement": "solubility", "setting": "[4]; toluene, Toluene, 40 vols", "result": "< 25", "unit": "mg/mL"},
      {"measurement": "solubility", "setting": "[4]; toluene, Toluene, 50 vols", "result": "< 20", "unit": "mg/mL"},
      {"measurement": "solubility", "setting": "[4]; toluene, Toluene, 60 vols", "result": "< 16.7", "unit": "mg/mL"},
      {"measurement": "solubility", "setting": "[4]; toluene, Toluene, 70 vols", "result": "< 14.3", "unit": "mg/mL"},
      {"measurement": "solubility", "setting": "[4]; toluene, Toluene, 80 vols", "result": "< 12.5", "unit": "mg/mL"},
      {"measurement": "solubility", "setting": "[4]; toluene, Toluene, 90 vols", "result": "< 11.1", "unit": "mg/mL"},
      {"measurement": "solubility", "setting": "[4]; toluene, Toluene, 100 vols", "result": "< 10", "unit": "mg/mL"},
      {"measurement": "solubility", "setting": "[4]; toluene, Toluene, 200 vols", "result": "< 5", "unit": "mg/mL"}
    ]}
  ]
}
